Laboratory results: patent publication US10696707B2, “Polyene macrolide derivative” (Shionogi & Co., Ltd., priority 2014, dated 2020)

These molecules were tested on red blood cells (5% RBC suspension) (assay: Test Example 2-1: in vitro hemolytic activity test (upper limit 50, 80, 100 or 200 μmol/L)). Settings: Erythrocyte, 1 h; hemolysis method 50 (upper concentration 50 μmol/L); 5% RBC suspension, 37° C., one hour; read-out: hemolysis IC50.
Assay type: cell-based
Method: Nephrotoxic potentials of the compounds of the present invention except the compounds whose X is —N(R^F)—CO—X^1 and X^1 is the group represented by formula (III) and T is —N(R^a5)— were investigated by in vitro hemolytic activity test under the condition, in that, the upper limit was 50 μmol/L, 80 μmol/L, 100 μmol/L, or 200 μmol/L as the required concentration to 50% of hemolysis (IC50).
Defibrinated sterile blood was centrifuged at 700×g for 3 minutes and, and the supernatant was removed for 100% of red blood cells. After the cleaning with physiological saline, the washed blood cells was suspended in the medium (Earle's balanced salt sodium, bicarbonate, 0.1 g/L L-glutamine without phenol red), and was diluted by 5% (5% RBC suspension).
The washed blood was diluted by 5% in water for injection (solution of complete hemolysis), and was used as the indication of optical density for complete hemolysis.
The compounds of the present invention solution in DMSO (several and doubling dilutions starting from 2.5 mmol/L, 4 mmol/L, 5 mmol/L, or 10 mmol/L), DMSO as the negative control, and Amphotericin B as the positive control were used, and each 5 μL of these was added in to a well of V-form 96 well type microplate.
Finally, the maximum concentration of the compounds of the present invention solution in DMSO was 50 μmol/L, 80 μmol/L, 100 μmol/L, or 200 μmol/L by adding 245 μL of the medium or 5% RBC suspension into the well.
Two hundred fifty μL of the solution of complete hemolysis was added into another well and the microplate was incubated at 37° C. in 5% of CO2 concentration for an hour.
After the incubation, each 100 μL of supernatants in wells was collected by centrifugation of the microplate at 300×g for 5 minutes and was located on a well of flat-form 96 well type microplate. An absorbance of each supernatant was measured at wavelength of 540 nm.
Percent hemolysis was calculated by using the followed equation. The required concentration to 50% of hemolysis (IC50) was calculated based on the percent hemolysis. […] Hemolysis (%)=(CR−VM)×100÷(VL−VR) Where:
CR: Absorbance of 5% RBC suspension incubated with the compounds of the present invention solution in DMSO
VM: Absorbance of medium incubated with the compounds of the present invention solution in DMSO
VL: Absorbance of solution of complete hemolysis
VR: Absorbance of 5% RBC suspension incubated with DMSO
The “hemolysis method” in the table means any tests the upper concentration of above IC50 are 50 μmol/L, 80 μmol/L, 100 μmol/L or 200 μmol/L. The “>50”, “>80”, “>100” or “>200” in the table means above IC50 value exceeded the each upper concentration.

| Structure (SMILES) | IC50 [µM] |
| --- | --- |
| C[C@@H]1[C@H](O)[C@@H](C)/C=C/C=C/C=C/C=C/C=C/C=C/C=C/[C@H](O[C@@H]2O[C@H](C)[C@@H](O)[C@H](N)[C@@H]2O)C[C@@H]2O[C@](O)(C[C@@H](O)C[C@@H](O)[C@H](O)CC[C@@H](O)C[C@@H](O)CC(=O)O[C@H]1C)C[C@H](O)[C@H]2NC(=O)NC1(C(=O)O)COC1 [I-252] | > 50 |
| C[C@@H]1[C@H](O)[C@@H](C)/C=C/C=C/C=C/C=C/C=C/C=C/C=C/[C@H](O[C@@H]2O[C@H](C)[C@@H](O)[C@H](N)[C@@H]2O)C[C@@H]2O[C@](O)(C[C@@H](O)C[C@@H](O)[C@H](O)CC[C@@H](O)C[C@@H](O)CC(=O)O[C@H]1C)C[C@H](O)[C@H]2c1nc(-c2ccccc2)no1 [I-391] | > 50 |

Same assay, conditions: Erythrocyte, 1 h; hemolysis method 100 (upper concentration 100 μmol/L); 5% RBC suspension, 37° C., one hour; read-out: hemolysis IC50

| Structure (SMILES) | IC50 [µM] |
| --- | --- |
| C[C@@H]1[C@H](O)[C@@H](C)/C=C/C=C/C=C/C=C/C=C/C=C/C=C/[C@H](O[C@@H]2O[C@H](C)[C@@H](O)[C@H](N)[C@@H]2O)C[C@@H]2O[C@](O)(C[C@@H](O)C[C@@H](O)[C@H](O)CC[C@@H](O)C[C@@H](O)CC(=O)O[C@H]1C)C[C@H](O)[C@H]2NC(=O)NCCc1c[nH]cn1 [I-5] | 94 |

Same assay, conditions: hemolysis method 50 (upper concentration 50 μmol/L); 5% RBC suspension, 37° C., one hour; read-out: hemolysis IC50

| Structure (SMILES) | IC50 [µM] |
| --- | --- |
| COC(=O)CCCNC(=O)N[C@H]1[C@@H]2C[C@@H](O[C@@H]3O[C@H](C)[C@@H](O)[C@H](N)[C@@H]3O)/C=C/C=C/C=C/C=C/C=C/C=C/C=C/[C@H](C)[C@@H](O)[C@@H](C)[C@H](C)OC(=O)C[C@H](O)C[C@H](O)CC[C@@H](O)[C@H](O)C[C@H](O)C[C@](O)(C[C@@H]1O)O2 [I-55] | > 50 |
| C[C@@H]1[C@H](O)[C@@H](C)/C=C/C=C/C=C/C=C/C=C/C=C/C=C/[C@H](O[C@@H]2O[C@H](C)[C@@H](O)[C@H](N)[C@@H]2O)C[C@@H]2O[C@](O)(C[C@@H](O)C[C@@H](O)[C@H](O)CC[C@@H](O)C[C@@H](O)CC(=O)O[C@H]1C)C[C@H](O)[C@H]2NC(=O)NCC[C@H](O)CO [I-146] | > 50 |
| C[C@@H]1[C@H](O)[C@@H](C)/C=C/C=C/C=C/C=C/C=C/C=C/C=C/[C@H](O[C@@H]2O[C@H](C)[C@@H](O)[C@H](N)[C@@H]2O)C[C@@H]2O[C@](O)(C[C@@H](O)C[C@@H](O)[C@H](O)CC[C@@H](O)C[C@@H](O)CC(=O)O[C@H]1C)C[C@H](O)[C@H]2NC(=O)N1CC(NC[C@H](O)CO)C1 [I-226] | > 50 |
| C[C@@H]1[C@H](O)[C@@H](C)/C=C/C=C/C=C/C=C/C=C/C=C/C=C/[C@H](O[C@@H]2O[C@H](C)[C@@H](O)[C@H](N)[C@@H]2O)C[C@@H]2O[C@](O)(C[C@@H](O)C[C@@H](O)[C@H](O)CC[C@@H](O)C[C@@H](O)CC(=O)O[C@H]1C)C[C@H](O)[C@H]2NC(=O)NOCC(CO)CO [I-255] | > 50 |
| C[C@@H]1[C@H](O)[C@@H](C)/C=C/C=C/C=C/C=C/C=C/C=C/C=C/[C@H](O[C@@H]2O[C@H](C)[C@@H](O)[C@H](N)[C@@H]2O)C[C@@H]2O[C@](O)(C[C@@H](O)C[C@@H](O)[C@H](O)CC[C@@H](O)C[C@@H](O)CC(=O)O[C@H]1C)C[C@H](O)[C@H]2NC(=O)NCCCC(=O)O [I-38] | > 50 |
| CCN(O)C(=O)N[C@H]1[C@@H]2C[C@@H](O[C@@H]3O[C@H](C)[C@@H](O)[C@H](N)[C@@H]3O)/C=C/C=C/C=C/C=C/C=C/C=C/C=C/[C@H](C)[C@@H](O)[C@@H](C)[C@H](C)OC(=O)C[C@H](O)C[C@H](O)CC[C@@H](O)[C@H](O)C[C@H](O)C[C@](O)(C[C@@H]1O)O2 [I-279] | > 50 |
| C[C@@H]1[C@H](O)[C@@H](C)/C=C/C=C/C=C/C=C/C=C/C=C/C=C/[C@H](O[C@@H]2O[C@H](C)[C@@H](O)[C@H](N)[C@@H]2O)C[C@@H]2O[C@](O)(C[C@@H](O)C[C@@H](O)[C@H](O)CC[C@@H](O)C[C@@H](O)CC(=O)O[C@H]1C)C[C@H](O)[C@H]2NC(=O)N1CCC1C(=O)O (stereo partly shown) [I-283] | > 50 |

Same assay, conditions: hemolysis method 80 (upper concentration 80 μmol/L); 5% RBC suspension, 37° C., one hour; read-out: hemolysis IC50

| Structure (SMILES) | IC50 [µM] |
| --- | --- |
| C[C@@H]1[C@H](O)[C@@H](C)/C=C/C=C/C=C/C=C/C=C/C=C/C=C/[C@H](O[C@@H]2O[C@H](C)[C@@H](O)[C@H](N)[C@@H]2O)C[C@@H]2O[C@](O)(C[C@@H](O)C[C@@H](O)[C@H](O)CC[C@@H](O)C[C@@H](O)CC(=O)O[C@H]1C)C[C@H](O)[C@H]2NC(=O)NC1CCN(C)CC1 [I-48] | > 80 |
| C[C@@H]1[C@H](O)[C@@H](C)/C=C/C=C/C=C/C=C/C=C/C=C/C=C/[C@H](O[C@@H]2O[C@H](C)[C@@H](O)[C@H](N)[C@@H]2O)C[C@@H]2O[C@](O)(C[C@@H](O)C[C@@H](O)[C@H](O)CC[C@@H](O)C[C@@H](O)CC(=O)O[C@H]1C)C[C@H](O)[C@H]2NC(=O)N1CCOCCOCCOCCOCCOCC1 [I-18] | > 80 |
| C[C@@H]1[C@H](O)[C@@H](C)/C=C/C=C/C=C/C=C/C=C/C=C/C=C/[C@H](O[C@@H]2O[C@H](C)[C@@H](O)[C@H](N)[C@@H]2O)C[C@@H]2O[C@](O)(C[C@@H](O)C[C@@H](O)[C@H](O)CC[C@@H](O)C[C@@H](O)CC(=O)O[C@H]1C)C[C@H](O)[C@H]2NC(=O)N1CCN(c2ccccc2)CC1 [I-17] | > 80 |
| C[C@@H]1[C@H](O)[C@@H](C)/C=C/C=C/C=C/C=C/C=C/C=C/C=C/[C@H](O[C@@H]2O[C@H](C)[C@@H](O)[C@H](N)[C@@H]2O)C[C@@H]2O[C@](O)(C[C@@H](O)C[C@@H](O)[C@H](O)CC[C@@H](O)C[C@@H](O)CC(=O)O[C@H]1C)C[C@H](O)[C@H]2NC(=O)N(CCO)CCO [I-39] | > 80 |
| C[C@@H]1[C@H](O)[C@@H](C)/C=C/C=C/C=C/C=C/C=C/C=C/C=C/[C@H](O[C@@H]2O[C@H](C)[C@@H](O)[C@H](N)[C@@H]2O)C[C@@H]2O[C@](O)(C[C@@H](O)C[C@@H](O)[C@H](O)CC[C@@H](O)C[C@@H](O)CC(=O)O[C@H]1C)C[C@H](O)[C@H]2NC(=O)N1CCC(N(C)C)C1 (single isomer, unassigned) [I-49] | > 80 |
| C[C@@H]1[C@H](O)[C@@H](C)/C=C/C=C/C=C/C=C/C=C/C=C/C=C/[C@H](O[C@@H]2O[C@H](C)[C@@H](O)[C@H](N)[C@@H]2O)C[C@@H]2O[C@](O)(C[C@@H](O)C[C@@H](O)[C@H](O)CC[C@@H](O)C[C@@H](O)CC(=O)O[C@H]1C)C[C@H](O)[C@H]2NC(=O)NCC[N+](C)(C)C [I-53] | > 80 |
| C[C@@H]1[C@H](O)[C@@H](C)/C=C/C=C/C=C/C=C/C=C/C=C/C=C/[C@H](O[C@@H]2O[C@H](C)[C@@H](O)[C@H](N)[C@@H]2O)C[C@@H]2O[C@](O)(C[C@@H](O)C[C@@H](O)[C@H](O)CC[C@@H](O)C[C@@H](O)CC(=O)O[C@H]1C)C[C@H](O)[C@H]2NC(=O)NCC(F)(F)F [I-21] | > 80 |

Same assay, conditions: hemolysis method 100 (upper concentration 100 μmol/L); 5% RBC suspension, 37° C., one hour; read-out: hemolysis IC50

| Structure (SMILES) | IC50 [µM] |
| --- | --- |
| CNC(=O)N[C@H]1[C@@H]2C[C@@H](O[C@@H]3O[C@H](C)[C@@H](O)[C@H](NCc4ccc(N(C)C)cc4)[C@@H]3O)/C=C/C=C/C=C/C=C/C=C/C=C/C=C/[C@H](C)[C@@H](O)[C@@H](C)[C@H](C)OC(=O)C[C@H](O)C[C@H](O)CC[C@@H](O)[C@H](O)C[C@H](O)C[C@](O)(C[C@@H]1O)O2 [I-314] | > 80 |
| C[C@@H]1[C@H](O)[C@@H](C)/C=C/C=C/C=C/C=C/C=C/C=C/C=C/[C@H](O[C@@H]2O[C@H](C)[C@@H](O)[C@H](NCc3cccnc3N)[C@@H]2O)C[C@@H]2O[C@](O)(C[C@@H](O)C[C@@H](O)[C@H](O)CC[C@@H](O)C[C@@H](O)CC(=O)O[C@H]1C)C[C@H](O)[C@H]2NC(=O)NCCN(C)C [I-328] | > 50 |
| C[C@@H]1[C@H](O)[C@@H](C)/C=C/C=C/C=C/C=C/C=C/C=C/C=C/[C@H](O[C@@H]2O[C@H](C)[C@@H](O)[C@H](N)[C@@H]2O)C[C@@H]2O[C@](O)(C[C@@H](O)C[C@@H](O)[C@H](O)CC[C@@H](O)C[C@@H](O)CC(=O)O[C@H]1C)C[C@H](O)[C@H]2NC(=O)N(N)CCO [I-212] | > 100 |
| CC1C=CC=CC=CC=CC=CC=CC=CC(OC2OC(C)C(O)C(N)C2O)CC2OC(O)(CC(O)CC(O)C(O)CCC(O)CC(O)CC(=O)OC(C)C(C)C1O)CC(O)C2NC(=O)NC1CCCC1O (stereo not shown) [I-207] | > 100 |
| C[C@@H]1[C@H](O)[C@@H](C)/C=C/C=C/C=C/C=C/C=C/C=C/C=C/[C@H](O[C@@H]2O[C@H](C)[C@@H](O)[C@H](N)[C@@H]2O)C[C@@H]2O[C@](O)(C[C@@H](O)C[C@@H](O)[C@H](O)CC[C@@H](O)C[C@@H](O)CC(=O)O[C@H]1C)C[C@H](O)[C@H]2NC(=O)NC(C)(CO)CO [I-213] | > 100 |
